Results as given in patent US7763600B2, “Hormone-based nitrogen monoxide donor compounds and use thereof in obstetrics and gynecology” (EFFIK, priority 2002, dated 2010).

System: human myometreal fragments
Assay: Inhibition in vitro of the uterine contractility of myometreal fibers from uteruses of women who are not pregnant
Assay type: cell-based
Conditions: for Inhibition as % (Mean): spontaneous contractions
From the text: Inhibition In Vitro of the Uterine Contractility of Myometreal Fibers from Uteruses of Women Who are Not Pregnant
The contractile activity of human myometreal fragments was studied in vitro.
After a lag time of approximately two hours, allowing the establishment of spontaneous contractions, the inhibition of the contractions, produced by addition to the medium of 17α-hydroxyprogesterone and of its nitro derivative, 17α-hydroxypregn-4-ene-3,20-dione (4′-nitro-oxymethyl)benzoate, identified in this table under the name 17α-hydroxypregn-4-ene-3,20-dione (4′-nitro-oxymethyl)benzoate (example 4), could be measured.
This experiment makes it possible to evaluate the short-term effect of this compound.

| SMILES | Inhibition as % (Mean) (concentration 2 × 10^−6 M) | Inhibition as % (Mean) (concentration 2 × 10^−7 M) | Activity on contractions compared with hydroxyprogesterone (on average, action much more constant, less variable) |
| --- | --- | --- | --- |
| CC(=O)[C@@]1(O)CC[C@H]2[C@@H]3CCC4=CC(=O)CC[C@]4(C)[C@H]3CC[C@@]21C [17α-hydroxyprogesterone, reference compound] | 66% | 45% |  |
| CC(=O)[C@@]1(OC(=O)c2ccc(CO[N+](=O)[O-])cc2)CC[C@H]2[C@@H]3CCC4=CC(=O)CC[C@]4(C)[C@H]3CC[C@@]21C [17α-hydroxypregn-4-ene-3,20-dione (4′-nitrooxymethyl)benzoate] | 69% | 37% | the same activity as hydroxyprogesterone |
